The values that follow come from patent US6780866B2, “Analgesic composition and method” (priority 2001, dated 2004).

Experiment [1] has as its system formalin-induced inflammatory pain. Further details: species or system Wistar male rats. The conditions noted are these: rat, in vivo.
The test system of experiment [2] is heat-induced tail-flick (nociceptive pain). Set-up: species or system Kunming mice. The conditions noted are these: mouse, in vivo. As to the method:
320 screened mice, half male and half female, were randomly divided into 16 groups. They were not given food, only water 12 hours prior to dosing.
The heat tail flick analgesia meter includes a heat source consisting of a 12 V, 50 watt, 8.75 mm projector lamp. The light beam from the heat source was focused and directed to a point on the tail of a mouse being tested, having a distance of 1-2 mm plus ⅓ of the tail length to the tail end.
The test drugs were given intramuscularly. […] The tail-flick latencies, which were assessed in response to a noxious heat stimulus, i.e., the response time from applying radiant heat on the dorsal surface of the tail to the occurrence of tail flick, were measured and recorded at 15, 30, 45, 60, 90, 120, 150, 180 min. after dosing. For each measurement, three readings were made consecutively one minute apart, and their average was recorded as the latency. The testing on one animal would be terminated when tail-flick was not observed within 20 seconds, and the latency would be recorded as 20 seconds. The pain inhibition rate was calculated according to the following formula for the purpose of assessing the analgesia potency: […]
The results were processed with SPSS, a statistical software provided by SPSS, Inc. of Chicago, Ill., USA. Half effective dose (ED50) and half inhibition dose (ID50) were calculated with the probit method.

Experiment [3] deals with formalin-induced inflammatory pain. The conditions noted are these: rat, in vivo; cited from earlier work.
For the next experiment, the system named is pain. To be noted: in vivo; cited from earlier work.

Each structure is given as a SMILES string. Several values for one entry are separate records, joined by “and”; a condition that tells them apart may be missing. Equal values may be shown once.

As to `CN1CC[C@]23c4c5ccc(O)c4O[C@H]2[C@@H](O)C=C[C@H]3[C@H]1C5.Cl` [Morphine, Morphine hydrochloride], the “ID50 of morphine” value in experiment [1] was 2.30 mg/kg. In experiment [2], this compound came in with an ED95 of morphine of 0.77 and an ID50 of morphine of 0.33 mg/kg.

In the case of `N=C1NC(O)C2C3OC4(O)OC(C(O)C2(N1)C4O)C3(O)CO` (stereo not drawn) [TTX, octahydro-12-(hydroxymethyl)-2-imino-5,9:7,10a-dimethano-10aH-[1,3]dioxocino[6,5-d]pyrimidine-4,7,10,11,12-pentol], in experiment [1] (3 mg/kg), the “Inhibition rate (%)” value is 32.9% and 11.6%; the Pain reaction score was 169.1 ± 47.2 and 223.0 ± 58.3. Moreover, in experiment [3], the inhibition is 71.7%. Also, in the experiment on pain, the “analgesic potency relative to morphine” value was “about 3,000 times”. Further, in experiment [2] (3 mg/kg), the “Inhibition rate (%)” value is 5.44% and 12.06%; the Latency after dosing is 5.88 ± 1.00 and 6.04 ± 0.76.

By inhibition is commonly meant the relative decrease from the control value, in per cent.
